Results from patent publication US20200094031A1, “TREATMENT OF A DISEASE OF THE GASTROINTESTINAL TRACT WITH A CHST15 INHIBITOR” (Progenity, Inc., priority 2017, published 2020).
Like-named read-outs stand apart in the source and are kept apart here.

Key:
[1] = Blood pharmacokinetics of oral vs intra-cecal tacrolimus (Example 13); set-up: species or system Yorkshire-Cross farm swine; conditions: in vivo; for concentration at 12 hr: Trough (12 hr)
From the text: (§1) No further randomization procedure was employed.

[2] = Tacrolimus concentration in gastrointestinal tissue, luminal content and rectal contents, and tissue/plasma ratios (Example 13); assay type: in vivo, Yorkshire-Cross farm swine; conditions: female, Yorkshire-Cross, pig; for concentration at 12 hr: other: intra-cecal device; for concentration at 12 hr / concentration at 12 h: 12 hr post dose
Description: The primary objective of this study was to study the pharmacokinetics of oral versus intra-cecal administration of tacrolimus in normal Yorkshire-Cross farm swine.
This study compares the effects of administration of: a single intra-cecal administration of a device containing 0.8 mL sterile vehicle solution (80% alcohol, 20% castor oil (HCO-60)); a single oral dose of tacrolimus at 0.09 mg/kg (in sterile vehicle solution); and a single intra-cecal administration of a device containing either 0.02 mg/kg (in sterile vehicle solution), 0.04 mg/kg (in sterile vehicle solution), or 0.09 mg/kg (in sterile vehicle solution).
This study employed five groups of three female swine weighing approximately 45 to 50 kg at study start. Swine were randomly placed into animal rooms/pens as they are transferred from the delivery vehicle without regard to group. Group numbers were assigned to the rooms in order of room number. No further randomization procedure was employed.
Animals in Group 1 received intra-cecally a device containing a vehicle solution (80% alcohol, 20% HCO-60). Animals in Group 2 received orally a liquid formulation of tacrolimus at 0.09 mg/kg per animal. Animals in Group 3 received intra-cecally a device containing tacrolimus at 0.02 mg/kg per device. Animals in Group 4 received intra-cecally a device containing tacrolimus 0.04 mg/kg per device. Animals in Group 5 received intra-cecally a device containing tacrolimus 0.09 mg/kg per device.

[3] = Tissue, plasma, rectal sample and GI content pharmacokinetics of tacrolimus, oral vs intra-cecal ingestible device (Example 10); set-up: species or system Yorkshire-Cross farm swine; conditions: in vivo
Description: The primary objective of this study was to compare the tissue, plasma, rectal sample, and GI content pharmacokinetics of tacrolimus through oral versus intra-cecal ingestible device delivery in normal Yorkshire-Cross farm swine.
as §1
Animals in Group 1 received an ingestible device containing 0.8 mL of vehicle solution (80% alcohol, 20% HCO-60). Animals in Group 2 received orally […] liquid formulation of tacrolimus at 4 mg/0.8 mL per animal (Prograf: 5 mg/mL). Animals in Group 3 received intra-cecally an ingestible device containing tacrolimus at 1 mg in 0.8 mL per ingestible device. Animals in Group 4 received intra-cecally an ingestible device containing tacrolimus at 2 mg in 0.8 mL per ingestible device. Animals in Group 5 received intra-cecally an ingestible device containing tacrolimus at 4 mg in 0.8 mL per ingestible device. To control for potential confounding effects of the surgery, all groups fast on Day −11 at least 24 hr before being subjected to anesthesia followed by surgical placements of a cecal port by a veterinary surgeon at Day −10. All animals were fasted for at least 12 hr prior to dosing on Day 1. Animals were dosed via either intra-cecal dosing (IC) or oral dosing (PO) at Day 1 (between 6-8 p.m.). All animals resumed feeding at approximately 4 hours after dose (11-12 p.m. after dosing).
Animals in Group 1 (Vehicle Control) were administered a single intra-cecal ingestible device containing 0.8 mL Vehicle solution (80% alcohol, 20% castor oil (HCO-60) on Day 1. On Day −10 the animals were anesthetized, and a veterinary surgeon surgically placed an intra-cecal port in each animal. On Day 1, each animal was placed into a sling then a single intra-cecal ingestible device containing 0.8 mL vehicle solution (80% alcohol, 20% castor oil (HCO-60)) is introduced by the veterinary surgeon into the cecum via the cecal port in each animal. Following ingestible device placement, the animals were removed from the slings and placed back into their pens with water. All animals resumed feeding at approximately 4 hours after dose. […] A total of 60 samples were collected.
Approximately 200˜400 mg of rectal content were collected, if available, with a fecal swab (Copan Diagnostics Nylon Flocked Dry Swabs, 502CS01). The fecal swab was pre-weighed and weighed after collection in the collection tube (Sterile Tube and Cap No Media, PFPM913S), and the sample weight was recorded. The fecal swab was broken via the breakpoint, and was stored in the collection tube, and immediately frozen at −70° C. […] Immediately following euthanasia, tissue was collected.
For tissue necropsy, small intestine fluid and cecal fluid were collected separately from all the animals into two separate square plastic bottles, and stored at −20° C. The length and diameter of the cecum and the colon was measured from one animal in each group and recorded for reference. Tissues were collected for pharmacokinetic analyses and include mesenteric lymph nodes, a Peyer's Patch, and five gastrointestinal sections, including cecum, proximal colon, transverse colon, distal colon, and rectum. All samples were weighed, and the tissue sample weights were recorded. In each of the five gastrointestinal sections, tissue samples were collected in three different areas where the mucosal surface was visible and not covered by luminal content by using an 8.0-mm punch biopsy tool. Around 3 grams of the total punched sample were collected into a pre-weighed 15-mL conical tube, and the tissue weight was recorded. Three mesenteric lymph nodes were collected from different areas and weighed. At least one Peyer's Patch was collected and weighed.
Luminal contents were collected for pharmacokinetic analyses from the surface of the tissue from each of five gastrointestinal sections: cecum, proximal colon, transverse colon, distal colon, and rectum (total of 75). […]

[4] = female, Yorkshire-Cross, pig, 0.02 mg/kg
[5] = female, Yorkshire-Cross, pig, 0.04 mg/kg
[6] = female, Yorkshire-Cross, pig, 0.09 mg/kg

C=CC[C@@H]1/C=C(\C)C[C@H](C)C[C@H](OC)[C@H]2O[C@@](O)(C(=O)C(=O)N3CCCC[C@H]3C(=O)O[C@H](/C(C)=C/[C@@H]3CC[C@@H](O)[C@H](OC)C3)[C@H](C)[C@@H](O)CC1=O)[C@H](C)C[C@@H]2OC [tacrolimus]
AUC(0-t) [1, 4]: 15.3 ± 2.36 ng·h/mL
Cmax [1, 4]: 2.39 ± 0.57 ng/mL
concentration at 12 hr [1, 4]: 0.746 ± 0.038 ng/mL
AUC(0-t) [1, 5]: 51.4 ± 4.04 ng·h/mL
Cmax [1, 5]: 9.2 ± 3.3 ng/mL
concentration at 12 hr [1, 5]: 1.96 ± 0.491 ng/mL
AUC(0-t) [1, 6]: 130 ± 7.83 ng·h/mL
Cmax [1, 6]: 21.8 ± 4.73 ng/mL
concentration at 12 hr [1, 6]: 4.35 ± 0.561 ng/mL
concentration at 12 hr ([1]; female, Yorkshire-Cross, pig, po, 0.09 mg/kg): 0.568 ± 0.291 ng/mL
concentration at 12 h ([1]; female, Yorkshire-Cross, pig, po, 0.09 mg/kg, Trough level (12 hr)): 0.568 ng/mL
mean concentration and AUC0-12 hours of tacrolimus in the blood ([1]; po, 0.09 mg/kg): higher
Kp at 12 h ([2]; cecum tissue, other: intra-cecal, 0.04 mg/kg, cecum, Group 4 IC (0.04 mg/kg), swine, read-out: Ratio Tissue (mean) (ng/g)/Trough(12 hr) (ng/ml)): 26.7
Kp at 12 h ([2]; cecum tissue, other: intra-cecal, 0.09 mg/kg, cecum, Group 5 IC (0.09 mg/kg), swine, read-out: Ratio Tissue (mean) (ng/g)/Trough(12 hr) (ng/ml)): 17.8
Kp at 12 h ([2]; distal colon tissue, other: intra-cecal, 0.02 mg/kg, distal colon, Group 3 IC (0.02 mg/kg), swine, read-out: Ratio Tissue (mean) (ng/g)/Trough(12 hr) (ng/ml)): 59.9
Kp at 12 h ([2]; distal colon tissue, other: intra-cecal, 0.04 mg/kg, distal colon, Group 4 IC (0.04 mg/kg), swine, read-out: Ratio Tissue (mean) (ng/g)/Trough(12 hr) (ng/ml)): 14.6
Kp at 12 h ([2]; distal colon tissue, other: intra-cecal, 0.09 mg/kg, distal colon, Group 5 IC (0.09 mg/kg), swine, read-out: Ratio Tissue (mean) (ng/g)/Trough(12 hr) (ng/ml)): 15.6
Ratio Tissue (mean) (ng/g)/AUG(0-12 hr) (ng · hr/ml) ([2]; in vivo, po, 0.09 mg/kg, 12 h): 0
Ratio Tissue (mean) (ng/g)/Trough(12 hr) (ng/ml) ([2]; in vivo, po, 0.09 mg/kg, 12 h): 0
Kp at 12 h ([2]; in vivo, po, 0.09 mg/kg, Ratio Tissue (mean) (ng/g)/AUG(0-12 hr) (ng · hr/ml)): 0
Kp at 12 h ([2]; in vivo, po, 0.09 mg/kg, Ratio Tissue (mean) (ng/g)/Trough(12 hr) (ng/ml)): 0
concentration at 12 hr ([2]; distal colon tissue, Group 3 IC (0.02 mg/kg), swine): 44.7 ng/g
concentration at 12 hr ([2]; proximal colon tissue, Group 3 IC (0.02 mg/kg), swine): 50.2 ng/g
concentration at 12 hr ([2]; spiral colon tissue, Group 3 IC (0.02 mg/kg), swine): 204 ng/g
concentration at 12 hr ([2]; spiral colon tissue, Group 4 IC (0.04 mg/kg), swine): 342 ng/g
concentration at 12 hr ([2]; spiral colon tissue, Group 5 IC (0.09 mg/kg), swine): 783 ng/g
concentration at 12 hr ([2]; transverse colon tissue, Group 3 IC (0.02 mg/kg), swine): 128 ng/g
concentration at 12 hr ([2]; transverse colon tissue, Group 4 IC (0.04 mg/kg), swine): 85.8 ng/g
concentration at 12 hr ([2]; transverse colon tissue, Group 5 IC (0.09 mg/kg), swine): 272 ng/g
concentration at 12 h ([2]; other: intra-cecal, cecum tissue, Group 4 IC (0.04 mg/kg), swine): 52.3 ng/g
concentration at 12 h ([2]; other: intra-cecal, cecum tissue, Group 5 IC (0.09 mg/kg), swine): 77.3 ng/g
concentration at 12 h ([2]; other: intra-cecal, distal colon tissue, Group 4 IC (0.04 mg/kg), swine): 28.7 ng/g
concentration at 12 h ([2]; other: intra-cecal, distal colon tissue, Group 5 IC (0.09 mg/kg), swine): 67.7 ng/g
concentration at 12 h ([2]; other: intra-cecal, proximal colon tissue, Group 4 IC (0.04 mg/kg), swine): 98.3 ng/g
concentration at 12 h ([2]; other: intra-cecal, proximal colon tissue, Group 5 IC (0.09 mg/kg), swine): 157 ng/g
Kp at 12 h ([2]; proximal colon tissue, other: intra-cecal, 0.02 mg/kg, proximal colon, Group 3 IC (0.02 mg/kg), swine, read-out: Ratio Tissue (mean) (ng/g)/Trough(12 hr) (ng/ml)): 67.3
Kp at 12 h ([2]; proximal colon tissue, other: intra-cecal, 0.04 mg/kg, proximal colon, Group 4 IC (0.04 mg/kg), swine, read-out: Ratio Tissue (mean) (ng/g)/Trough(12 hr) (ng/ml)): 50.1
Kp at 12 h ([2]; proximal colon tissue, other: intra-cecal, 0.09 mg/kg, proximal colon, Group 5 IC (0.09 mg/kg), swine, read-out: Ratio Tissue (mean) (ng/g)/Trough(12 hr) (ng/ml)): 36.1
Kp at 12 h ([2]; spiral colon tissue, other: intra-cecal, 0.02 mg/kg, spiral colon, Group 3 IC (0.02 mg/kg), swine, read-out: Ratio Tissue (mean) (ng/g)/Trough(12 hr) (ng/ml)): 273
Kp at 12 h ([2]; spiral colon tissue, other: intra-cecal, 0.04 mg/kg, spiral colon, Group 4 IC (0.04 mg/kg), swine, read-out: Ratio Tissue (mean) (ng/g)/Trough(12 hr) (ng/ml)): 175
Kp at 12 h ([2]; spiral colon tissue, other: intra-cecal, 0.09 mg/kg, spiral colon, Group 5 IC (0.09 mg/kg), swine, read-out: Ratio Tissue (mean) (ng/g)/Trough(12 hr) (ng/ml)): 180
Kp at 12 h ([2]; transverse colon tissue, other: intra-cecal, 0.02 mg/kg, transverse colon, Group 3 IC (0.02 mg/kg), swine, read-out: Ratio Tissue (mean) (ng/g)/Trough(12 hr) (ng/ml)): 172
Kp at 12 h ([2]; transverse colon tissue, other: intra-cecal, 0.04 mg/kg, transverse colon, Group 4 IC (0.04 mg/kg), swine, read-out: Ratio Tissue (mean) (ng/g)/Trough(12 hr) (ng/ml)): 43.8
Kp at 12 h ([2]; transverse colon tissue, other: intra-cecal, 0.09 mg/kg, transverse colon, Group 5 IC (0.09 mg/kg), swine, read-out: Ratio Tissue (mean) (ng/g)/Trough(12 hr) (ng/ml)): 62.5
exposure AUC [3]: < 2000-12 ng·h/mL
luminal content (spiral, transverse, and distal colon) concentrations [3]: Significantly higher
mean concentration of tacrolimus in the cecum tissue and the proximate colon tissue [3]: higher
tissue (spiral and transverse colon) concentrations [3]: Significantly higher
level of tacrolimus in tissue ([3]; po): No measurable level
rectal content concentration ([3]; po): no detectable level
